# Results published in EP0607129B1, “METHYLPIPERAZINOAZEPINE DERIVATIVES, THEIR PREPARATION AND USE” ("THERABEL RESEARCH SA/NV", priority 1991, dated 1993).
# Columns and labels:
# [1] = tested on: récepteurs muscariniques; parameters: species or system rat CFY; conditions: 1,5 nM (³H) QNB; rat brain homogenate without cerebellum; 25°C, 60 minutes; non-specific binding with atropine 10⁻⁵M; test concentration not given
# [2] = Catalepsy test (extrapyramidal side effects); format: in vivo; conditions: for léger / faible effet cataleptique à partir de: dose from which a slight (léger, faible) cataleptic effect is seen; for catalepsie pour des doses supérieures à: dose above which catalepsy is seen
# From the text: Voir notamment GRAY W.D., OSTERBERG A.C., RAUH C.E., Arch. Int. Pharmacodyn. 134, 198, 1961 et COSTALL B., OLLEY J.E., Neuropharmacology 10, 297, 1971.
# Ce test est représentatif des effets extrapyramidaux présents dans de nombreux neuroleptiques (effet secondaire non souhaitable). Les composés de l'invention provoquent très peu de catalepsie et paraissent donc dénués de cet effet secondaire non souhaitable.
# [3] = tested on: apomorphine; experiment: In vivo apomorphine antagonism test
# [4] = graded + to +++++, 20 mg/kg for the compounds
smiles,measurement,setting,value
"CN1CCN(C2=Nc3ccccc3Sc3ccc(Cl)cc32)CC1 [Clothiapine, reference compound]","Inhibition, % (binding de ³H QNB)",[1],"38,05%"
"CN1CCN(C2=Nc3cc(Cl)ccc3Nc3ccccc32)CC1 [Clozapine, reference compound]",léger / faible effet cataleptique à partir de,[2],≥ 20 mg/kg
same,Test d'antagonisme a l'apomorphine: intensité de l'activité,[3]; clozapine at 20 mg/g (so in the source),+
"CN1CCN(C2=Nc3ccccc3Nc3ccncc32)CC1 [Exemple 1, 11-(4-méthylpipérazin-1-yl)-5H-pyrido(4,3-b)benzo-1,5-diazépine]","Inhibition, % (binding de ³H QNB)",[1],"4,48%"
same,catalepsie pour des doses supérieures à,[2],> 40 mg/kg
"CN1CCN(C2=Nc3cccnc3Sc3ccc(Cl)cc32)CC1.O=C(O)/C=C/C(=O)O [Exemple 3, Fumaratede 8-chloro-6-(4-méthylpipérazin-1-yl)pyrido(2,3-b)benzo-1,4-thiazépine]",catalepsie pour des doses supérieures à,[2],> 40 mg/kg
"CN1CCN(C2=Nc3ccccc3Oc3ncccc32)CC1.O=C(O)/C=C\C(=O)O [Exemple 4, Maléatede 5-(4-méthylpipérazin-1-yl)pyrido(2,3-b)benzo-1,5-oxazépine]",léger / faible effet cataleptique à partir de,[2],≥ 20 mg/kg
"CN1CCN(C2=Nc3cc(Cl)ccc3Oc3ncccc32)CC1.O=C(O)/C=C/C(=O)O [Exemple 5, Fumaratede 8-chloro-5-(4-méthylpipérazin-1-yl)pyrido(2,3-b)benzo-1,5-oxazépine]",Test d'antagonisme a l'apomorphine: intensité de l'activité,[3]; [4],+
"CN1CCN(C2=Nc3cccnc3Oc3ccccc32)CC1.O=C(O)/C=C/C(=O)O [Exemple 7, Fumaratede 6-(4-méthylpipérazin-1-yl)pyrido(2,3-b)benzo-1,4-oxazépine]",Test d'antagonisme a l'apomorphine: intensité de l'activité,[3]; [4],+
"CN1CCN(C2=Nc3cccnc3Nc3ccc(Cl)cc32)CC1 [Exemple 10, 8-chloro-6-(4-méthylpipérazin-1-yl)-11H-pyrido(2,3-b)benzo-1,4-diazépine]","Inhibition, % (binding de ³H QNB)",[1],"62,08%"
"Cc1ccc2c(c1)C(N1CCN(C)CC1)=Nc1cccnc1N2 [Exemple 11, 6-(4-méthylpipérazin-1-yl)-8-méthyl-11H-pyrido(2,3-b)benzo-1,4-diazépine]","Inhibition, % (binding de ³H QNB)",[1],"67,3%"
"CN1CCN(C2=Nc3cccnc3Nc3cc(Cl)ccc32)CC1 [Exemple 12, 9-chloro-6-(4-méthylpipérazin-1-yl)-11H-pyrido(2,3-b)benzo-1,4-diazépine]",Test d'antagonisme a l'apomorphine: intensité de l'activité,[3]; [4],+
"CN1CCN(C2=Nc3cccnc3Nc3ccc(F)cc32)CC1 [Exemple 13, 8-fluoro-6-(4-méthylpipérazin-1-yl)-11H-pyrido(2,3-b)benzo-1,4-diazépine]",Test d'antagonisme a l'apomorphine: intensité de l'activité,[3]; [4],+
"CN1CCN(C2=Nc3cccnc3N(C=O)c3ccccc32)CC1 [Exemple 17, 11-formyl-6-(4-méthylpipérazin-1-yl)-11H-pyrido(2,3-b)benzo-1,4-diazépine]","Inhibition, % (binding de ³H QNB)",[1],"43,38%"
"CN1CCN(C2=Nc3cnccc3Sc3ccccc32)CC1 [Exemple 18, 10-(4-méthylpipérazin-1-yl)pyrido(4,3-b)benzo-1,4-thiazépine]","Inhibition, % (binding de ³H QNB)",[1],"57,61%"
"O=C(CCCN1CCC(O)(c2ccc(Cl)cc2)CC1)c1ccc(F)cc1 [Halopéridol, reference compound]",Test d'antagonisme a l'apomorphine: intensité de l'activité,"[3]; halopéridol at 0,63 mg/kg",+++++
